Results taken from ChEMBL document CHEMBL4507310, “Data for DCP probe A-1211212” (2021).

Assays:
[1] = molecular target: Homeodomain-interacting protein kinase 2 (Homo sapiens) (UniProt Q9H2X6); conditions: Compound concentration 1000.0 nM
[2] = molecular target: Bone morphogenetic protein receptor type-2 (Homo sapiens) (UniProt Q13873); conditions: Compound concentration 1000.0 nM
[3] = molecular target: Serine/threonine-protein kinase SIK1 (Homo sapiens) (UniProt P57059); conditions: Compound concentration 1000.0 nM
[4] = molecular target: Mitogen-activated protein kinase kinase kinase kinase 2 (Homo sapiens) (UniProt Q12851); conditions: Compound concentration 1000.0 nM
[5] = molecular target: Calcium-dependent protein kinase 1 (Plasmodium falciparum) (UniProt P62344); conditions: Compound concentration 1000.0 nM
[6] = molecular target: MAP kinase-interacting serine/threonine-protein kinase 2 (Homo sapiens) (UniProt Q9HBH9); conditions: Compound concentration 1000.0 nM
[7] = tested on: Epidermal growth factor receptor (Homo sapiens), P00533 [L858R,T790M]; conditions: Compound concentration 1000.0 nM
[8] = molecular target: 5-hydroxytryptamine receptor 2A (Homo sapiens) (UniProt P28223); assay: 5-HT2A (h) Eurofins-Cerep binding assay; set-up: ligand concentration 0.5 nM; conditions: filed as antagonist, Compound concentration 10.0 uM
[9] = tested on: Phosphatidylinositol 4,5-bisphosphate 3-kinase catalytic subunit alpha isoform (Homo sapiens), P42336 [M1043I]; conditions: Compound concentration 1000.0 nM
[10] = molecular target: Cannabinoid receptor 1 (Homo sapiens) (UniProt P21554); assay: CB1 (h) Eurofins-Cerep binding assay; set-up: ligand concentration 0.5 nM; conditions: filed as agonist, Compound concentration 10.0 uM
[11] = molecular target: Tyrosine-protein kinase Fyn (Homo sapiens) (UniProt P06241); conditions: Compound concentration 1000.0 nM
[12] = molecular target: Fibroblast growth factor receptor 3 (Homo sapiens) (UniProt P22607); conditions: Compound concentration 1000.0 nM
[13] = molecular target: Serine/threonine-protein kinase 32B (Homo sapiens) (UniProt Q9NY57); conditions: Compound concentration 1000.0 nM
[14] = molecular target: T1, Alpha-2B adrenergic receptor (Homo sapiens) (UniProt P18089); assay: Alpha2B (h) Eurofins-Cerep binding assay; set-up: ligand concentration 2.5 nM; conditions: filed as antagonist, Compound concentration 10.0 uM
T1 sequence (whole entry): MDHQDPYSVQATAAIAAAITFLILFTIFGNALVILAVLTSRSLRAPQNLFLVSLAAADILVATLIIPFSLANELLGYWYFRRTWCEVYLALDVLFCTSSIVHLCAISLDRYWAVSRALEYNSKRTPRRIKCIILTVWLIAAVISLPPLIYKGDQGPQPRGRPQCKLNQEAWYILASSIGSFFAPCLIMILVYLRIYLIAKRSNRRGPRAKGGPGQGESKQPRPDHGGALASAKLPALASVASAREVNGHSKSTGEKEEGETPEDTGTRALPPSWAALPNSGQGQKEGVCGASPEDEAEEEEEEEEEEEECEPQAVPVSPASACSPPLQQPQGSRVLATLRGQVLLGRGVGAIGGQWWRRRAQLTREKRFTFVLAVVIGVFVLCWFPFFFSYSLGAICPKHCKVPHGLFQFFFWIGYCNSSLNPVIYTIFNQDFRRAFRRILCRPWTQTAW

[15] = molecular target: Cyclin-dependent kinase 4 (Homo sapiens) (UniProt P11802); conditions: Compound concentration 1000.0 nM
[16] = molecular target: Dual specificity mitogen-activated protein kinase kinase 4 (Homo sapiens) (UniProt P45985); conditions: Compound concentration 1000.0 nM
[17] = molecular target: Dual specificity protein kinase TTK (Homo sapiens) (UniProt P33981); conditions: Compound concentration 1000.0 nM
[18] = molecular target: Serine/threonine-protein kinase B-raf (Homo sapiens) (UniProt P15056); conditions: Compound concentration 1000.0 nM
[19] = molecular target: Serine/threonine-protein kinase Chk2 (Homo sapiens) (UniProt O96017); conditions: Compound concentration 1000.0 nM
[20] = molecular target: Serine/threonine-protein kinase PLK2 (Homo sapiens) (UniProt Q9NYY3); conditions: Compound concentration 1000.0 nM
[21] = molecular target: Interleukin-1 receptor-associated kinase 1 (Homo sapiens) (UniProt P51617); conditions: Compound concentration 1000.0 nM
[22] = molecular target: Leukocyte tyrosine kinase receptor (Homo sapiens) (UniProt P29376); conditions: Compound concentration 1000.0 nM
[23] = molecular target: Myosin-IIIb (Homo sapiens) (UniProt Q8WXR4); conditions: Compound concentration 1000.0 nM
[24] = molecular target: Acetylcholinesterase (Homo sapiens) (UniProt P22303); assay: Acetylcholinesterase (h) Eurofins-Cerep enzyme and uptake assay; conditions: Compound concentration 10.0 uM
[25] = molecular target: T2, 5-hydroxytryptamine receptor 3A (Homo sapiens) (UniProt P46098); assay: 5-HT3 (h) Eurofins-Cerep binding assay; set-up: ligand concentration 0.5 nM; conditions: filed as antagonist, Compound concentration 10.0 uM
T2 sequence (whole entry): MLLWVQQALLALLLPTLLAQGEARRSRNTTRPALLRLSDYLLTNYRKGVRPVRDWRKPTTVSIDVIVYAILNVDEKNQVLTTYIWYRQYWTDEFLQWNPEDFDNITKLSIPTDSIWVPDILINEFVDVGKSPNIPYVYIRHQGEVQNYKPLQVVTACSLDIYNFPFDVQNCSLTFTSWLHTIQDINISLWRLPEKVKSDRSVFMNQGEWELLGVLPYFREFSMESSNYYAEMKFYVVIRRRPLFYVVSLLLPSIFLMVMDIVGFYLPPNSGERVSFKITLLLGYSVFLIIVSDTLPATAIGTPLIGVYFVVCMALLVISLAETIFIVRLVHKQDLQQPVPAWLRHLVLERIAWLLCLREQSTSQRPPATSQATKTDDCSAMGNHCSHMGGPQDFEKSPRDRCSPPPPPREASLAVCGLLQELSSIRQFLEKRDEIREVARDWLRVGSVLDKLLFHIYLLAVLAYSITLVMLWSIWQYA

[26] = molecular target: Leucine-rich repeat serine/threonine-protein kinase 2 (Homo sapiens) (UniProt Q5S007); conditions: Compound concentration 1000.0 nM
[27] = molecular target: Mitogen-activated protein kinase kinase kinase 20 (Homo sapiens) (UniProt Q9NYL2); conditions: Compound concentration 1000.0 nM
[28] = molecular target: Cytoplasmic tyrosine-protein kinase BMX (Homo sapiens) (UniProt P51813); conditions: Compound concentration 1000.0 nM
[29] = tested on: Receptor-type tyrosine-protein kinase FLT3 (Homo sapiens), P36888 [UNDEFINED MUTATION]; conditions: Compound concentration 1000.0 nM
[30] = molecular target: Histamine H2 receptor (Homo sapiens) (UniProt P25021); conditions: Compound concentration 10.0 uM
[31] = molecular target: TGF-beta receptor type-2 (Homo sapiens) (UniProt P37173); conditions: Compound concentration 1000.0 nM
[32] = molecular target: Phosphatidylinositol 5-phosphate 4-kinase type-2 beta (Homo sapiens) (UniProt P78356); conditions: Compound concentration 1000.0 nM
Sequence of Phosphatidylinositol 5-phosphate 4-kinase type-2 beta (Homo sapiens) (P78356 whole entry): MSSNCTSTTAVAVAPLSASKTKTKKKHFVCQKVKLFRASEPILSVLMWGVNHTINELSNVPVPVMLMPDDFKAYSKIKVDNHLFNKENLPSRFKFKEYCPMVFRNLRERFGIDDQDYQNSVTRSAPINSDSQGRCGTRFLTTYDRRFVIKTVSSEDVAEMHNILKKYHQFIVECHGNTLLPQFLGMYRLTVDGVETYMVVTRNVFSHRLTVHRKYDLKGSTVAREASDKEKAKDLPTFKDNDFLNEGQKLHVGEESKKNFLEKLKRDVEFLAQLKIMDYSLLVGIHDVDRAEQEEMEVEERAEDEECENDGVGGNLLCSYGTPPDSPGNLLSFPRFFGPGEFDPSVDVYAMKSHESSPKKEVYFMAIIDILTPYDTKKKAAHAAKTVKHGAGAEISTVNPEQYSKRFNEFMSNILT

Sequence of Fibroblast growth factor receptor 3 (Homo sapiens) (P22607 23-806 limits assumed): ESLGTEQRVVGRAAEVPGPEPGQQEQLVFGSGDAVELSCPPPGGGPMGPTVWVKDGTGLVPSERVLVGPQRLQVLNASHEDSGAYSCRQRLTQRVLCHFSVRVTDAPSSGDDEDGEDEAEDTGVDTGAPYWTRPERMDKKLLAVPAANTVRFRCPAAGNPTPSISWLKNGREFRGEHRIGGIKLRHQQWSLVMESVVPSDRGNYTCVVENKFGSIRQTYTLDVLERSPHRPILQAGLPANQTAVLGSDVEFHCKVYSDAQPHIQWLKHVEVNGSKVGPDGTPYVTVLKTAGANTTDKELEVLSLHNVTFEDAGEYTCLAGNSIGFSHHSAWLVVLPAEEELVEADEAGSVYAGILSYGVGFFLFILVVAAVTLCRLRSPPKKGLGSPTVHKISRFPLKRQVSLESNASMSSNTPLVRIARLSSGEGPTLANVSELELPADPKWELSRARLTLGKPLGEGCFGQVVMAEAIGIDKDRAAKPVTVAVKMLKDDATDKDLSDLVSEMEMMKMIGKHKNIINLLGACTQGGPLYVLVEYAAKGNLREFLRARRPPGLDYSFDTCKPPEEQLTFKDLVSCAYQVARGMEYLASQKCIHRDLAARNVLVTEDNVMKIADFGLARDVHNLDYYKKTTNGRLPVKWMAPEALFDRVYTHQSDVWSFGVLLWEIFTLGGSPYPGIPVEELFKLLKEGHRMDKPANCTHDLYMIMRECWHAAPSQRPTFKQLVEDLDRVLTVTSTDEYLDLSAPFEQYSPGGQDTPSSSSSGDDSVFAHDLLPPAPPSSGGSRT
Sequence of Tyrosine-protein kinase Fyn (Homo sapiens) (P06241 2-537 limits assumed): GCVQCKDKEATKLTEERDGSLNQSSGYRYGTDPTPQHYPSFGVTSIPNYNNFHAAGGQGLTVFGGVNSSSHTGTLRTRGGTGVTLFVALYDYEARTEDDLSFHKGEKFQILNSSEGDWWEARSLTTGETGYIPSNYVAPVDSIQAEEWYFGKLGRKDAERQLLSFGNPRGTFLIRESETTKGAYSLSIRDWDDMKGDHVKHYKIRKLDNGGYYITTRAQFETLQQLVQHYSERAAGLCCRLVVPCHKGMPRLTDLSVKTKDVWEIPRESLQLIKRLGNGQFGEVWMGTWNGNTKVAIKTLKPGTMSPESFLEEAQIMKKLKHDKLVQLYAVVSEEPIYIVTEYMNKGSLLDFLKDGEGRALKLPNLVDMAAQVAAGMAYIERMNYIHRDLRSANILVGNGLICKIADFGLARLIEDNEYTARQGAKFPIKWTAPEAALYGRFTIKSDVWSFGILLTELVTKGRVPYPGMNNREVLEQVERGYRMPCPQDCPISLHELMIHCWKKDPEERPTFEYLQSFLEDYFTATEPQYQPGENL
Sequence of Leukocyte tyrosine kinase receptor (Homo sapiens) (P29376 whole entry): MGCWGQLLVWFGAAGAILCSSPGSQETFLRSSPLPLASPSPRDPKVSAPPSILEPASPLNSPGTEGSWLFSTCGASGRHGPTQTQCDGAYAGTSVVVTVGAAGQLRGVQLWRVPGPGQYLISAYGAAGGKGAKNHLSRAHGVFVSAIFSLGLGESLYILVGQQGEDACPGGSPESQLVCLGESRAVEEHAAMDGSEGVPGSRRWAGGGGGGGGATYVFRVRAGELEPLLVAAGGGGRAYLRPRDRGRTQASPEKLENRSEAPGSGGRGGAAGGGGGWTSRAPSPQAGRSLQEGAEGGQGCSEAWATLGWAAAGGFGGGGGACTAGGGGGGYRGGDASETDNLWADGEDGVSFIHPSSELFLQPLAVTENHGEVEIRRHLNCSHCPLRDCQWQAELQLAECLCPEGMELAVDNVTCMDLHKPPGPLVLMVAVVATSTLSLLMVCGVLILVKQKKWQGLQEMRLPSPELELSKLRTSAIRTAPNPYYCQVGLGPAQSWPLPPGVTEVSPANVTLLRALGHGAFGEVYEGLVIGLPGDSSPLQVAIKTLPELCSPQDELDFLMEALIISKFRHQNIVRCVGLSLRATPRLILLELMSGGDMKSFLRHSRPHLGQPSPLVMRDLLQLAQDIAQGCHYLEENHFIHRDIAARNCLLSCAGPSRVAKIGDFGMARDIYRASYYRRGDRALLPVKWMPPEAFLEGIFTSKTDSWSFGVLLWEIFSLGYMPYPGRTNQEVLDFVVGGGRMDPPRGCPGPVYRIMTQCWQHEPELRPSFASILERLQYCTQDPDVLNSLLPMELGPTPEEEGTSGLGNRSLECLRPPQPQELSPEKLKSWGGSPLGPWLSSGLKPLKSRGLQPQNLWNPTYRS
Sequence of Dual specificity protein kinase TTK (Homo sapiens) (P33981 whole entry): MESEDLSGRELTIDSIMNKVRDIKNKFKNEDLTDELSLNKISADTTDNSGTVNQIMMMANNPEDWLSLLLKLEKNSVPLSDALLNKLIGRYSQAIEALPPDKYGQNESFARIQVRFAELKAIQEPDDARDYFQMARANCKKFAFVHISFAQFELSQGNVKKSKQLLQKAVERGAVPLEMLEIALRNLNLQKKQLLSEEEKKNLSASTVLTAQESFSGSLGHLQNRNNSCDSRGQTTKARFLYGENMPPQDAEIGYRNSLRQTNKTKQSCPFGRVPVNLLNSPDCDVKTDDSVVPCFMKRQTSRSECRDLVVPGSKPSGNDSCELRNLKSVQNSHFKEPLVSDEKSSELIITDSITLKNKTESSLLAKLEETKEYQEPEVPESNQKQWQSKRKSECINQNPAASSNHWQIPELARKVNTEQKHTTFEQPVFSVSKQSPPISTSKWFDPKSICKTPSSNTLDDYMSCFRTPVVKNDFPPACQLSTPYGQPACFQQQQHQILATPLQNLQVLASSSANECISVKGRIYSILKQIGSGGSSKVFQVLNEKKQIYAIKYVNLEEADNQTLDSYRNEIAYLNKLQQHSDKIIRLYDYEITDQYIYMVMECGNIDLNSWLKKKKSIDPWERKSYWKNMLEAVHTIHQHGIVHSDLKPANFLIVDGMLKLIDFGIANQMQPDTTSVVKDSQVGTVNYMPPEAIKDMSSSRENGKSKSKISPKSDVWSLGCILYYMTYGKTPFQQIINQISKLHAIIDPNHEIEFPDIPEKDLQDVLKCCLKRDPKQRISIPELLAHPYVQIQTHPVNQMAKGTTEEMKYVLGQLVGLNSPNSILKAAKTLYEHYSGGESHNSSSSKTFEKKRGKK
Sequence of Cytoplasmic tyrosine-protein kinase BMX (Homo sapiens) (P51813 whole entry): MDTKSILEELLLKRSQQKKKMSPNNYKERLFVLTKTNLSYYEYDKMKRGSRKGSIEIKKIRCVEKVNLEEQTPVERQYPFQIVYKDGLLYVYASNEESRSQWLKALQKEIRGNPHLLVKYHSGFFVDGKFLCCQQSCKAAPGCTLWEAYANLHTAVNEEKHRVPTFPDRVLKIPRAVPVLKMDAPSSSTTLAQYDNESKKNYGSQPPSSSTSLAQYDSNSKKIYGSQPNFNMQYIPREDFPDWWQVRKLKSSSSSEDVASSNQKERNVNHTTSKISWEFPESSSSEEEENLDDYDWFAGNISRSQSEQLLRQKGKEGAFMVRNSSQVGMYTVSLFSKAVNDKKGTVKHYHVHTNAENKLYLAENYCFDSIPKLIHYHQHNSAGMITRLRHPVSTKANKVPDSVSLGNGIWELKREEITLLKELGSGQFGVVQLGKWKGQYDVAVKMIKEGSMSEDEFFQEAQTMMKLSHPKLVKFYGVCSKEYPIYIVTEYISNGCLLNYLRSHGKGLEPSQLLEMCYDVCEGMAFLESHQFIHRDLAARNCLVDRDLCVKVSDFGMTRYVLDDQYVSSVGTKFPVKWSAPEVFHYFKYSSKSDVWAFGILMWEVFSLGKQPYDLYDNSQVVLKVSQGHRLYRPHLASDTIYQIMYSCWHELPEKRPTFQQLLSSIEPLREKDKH
Sequence of Interleukin-1 receptor-associated kinase 1 (Homo sapiens) (P51617 whole entry, looked up): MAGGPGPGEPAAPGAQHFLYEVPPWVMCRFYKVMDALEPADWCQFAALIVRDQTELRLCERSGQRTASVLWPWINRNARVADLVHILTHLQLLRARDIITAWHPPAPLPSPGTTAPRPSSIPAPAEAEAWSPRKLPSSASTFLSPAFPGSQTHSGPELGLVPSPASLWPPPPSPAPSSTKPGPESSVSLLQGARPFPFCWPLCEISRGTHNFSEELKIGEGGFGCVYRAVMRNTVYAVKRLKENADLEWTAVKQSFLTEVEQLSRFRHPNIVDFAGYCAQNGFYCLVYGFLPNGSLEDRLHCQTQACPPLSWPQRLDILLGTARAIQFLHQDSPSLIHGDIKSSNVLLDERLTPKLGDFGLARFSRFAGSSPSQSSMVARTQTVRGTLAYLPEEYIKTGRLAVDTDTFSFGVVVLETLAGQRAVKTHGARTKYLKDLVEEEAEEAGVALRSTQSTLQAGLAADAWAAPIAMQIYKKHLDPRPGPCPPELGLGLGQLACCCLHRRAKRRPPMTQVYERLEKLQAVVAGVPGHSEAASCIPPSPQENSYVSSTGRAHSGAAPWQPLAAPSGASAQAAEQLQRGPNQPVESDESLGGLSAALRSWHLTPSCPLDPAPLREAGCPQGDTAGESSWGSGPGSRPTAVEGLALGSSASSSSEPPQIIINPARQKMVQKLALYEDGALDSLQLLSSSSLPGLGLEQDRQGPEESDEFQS

Compound | residual activity [1] [%] | residual activity [2] [%] | residual activity [3] [%] | residual activity [4] [%] | residual activity [5] [%] | residual activity [6] [%] | residual activity [7] [%] | % Inhibition of Control Specific Binding (Mean n=2) [8] [%] | residual activity [9] [%] | % Inhibition of Control Specific Binding (Mean n=2) [10] [%] | residual activity [11] [%] | residual activity [12] [%] | residual activity [13] [%] | % Inhibition of Control Specific Binding (Mean n=2) [14] [%] | residual activity [15] [%] | residual activity [16] [%] | residual activity [17] [%] | residual activity [18] [%] | residual activity [19] [%] | residual activity [20] [%] | further results
O=C(NS(=O)(=O)c1ccc(NCC2CCOCC2)c([N+](=O)[O-])c1)c1ccc(N2CCN(Cc3ccc(C(F)(F)F)cc3-c3ccc(Cl)cc3)CC2)cc1Oc1cnc2[nH]ccc2c1 [A-1210227] | 100 | 100 | 90 | 76 | 82 | 83 | 75 | -0.1 | 51 | -13.7 | 100 | 100 | 100 | -11.6 | 100 | 100 | 100 | 100 | 95 | 100 | residual activity [21]: 96%; residual activity [22]: 100%; residual activity [23]: 100%; % Inhibition of Control Values (Mean n=2) [24]: 11%; % Inhibition of Control Specific Binding (Mean n=2) [25]: 0.2%; residual activity [26]: 100%; residual activity [27]: 100%; residual activity [28]: 100%; residual activity [29]: 66%; inhibition [30]: 8.95%; residual activity [31]: 76%; residual activity [32]: 100%
CO[C@H]1CC[C@H](CNc2ccc(S(=O)(=O)NC(=O)c3ccc(N4CCN(CC5=C(c6ccc(Cl)cc6)CC(C)(C)CC5)CC4)cc3Oc3cnc4[nH]ccc4c3)cc2[N+](=O)[O-])CC1 [A-1211212] | 100 | 100 | 90 | 83 | 80 | 73 | 98 | -5 | 74 | -6.4 | 97 | 95 | 100 | -20.1 | 100 | 98 | 82 | 100 | 89 | 100 | residual activity [21]: 96%; residual activity [22]: 100%; residual activity [23]: 69%; % Inhibition of Control Values (Mean n=2) [24]: 3.2%; % Inhibition of Control Specific Binding (Mean n=2) [25]: -6.1%; residual activity [26]: 100%; residual activity [27]: 100%; residual activity [28]: 95%; residual activity [29]: 88%; inhibition [30]: 13.6%; residual activity [31]: 74%; residual activity [32]: 96%
